{"source": "paper PMC8350397", "about": "“GSK137, a potent small-molecule BCL6 inhibitor with in vivo activity, suppresses antibody responses in mice” (The Journal of Biological Chemistry, 2021)", "tested_on": "splenic GC B cells and Tfh cells", "assay": "TNP-KLH immunization model, flow cytometry of spleen cells", "type": "in vivo, mouse", "settings": "for reduction of mean absolute number of Tfh cells per spleen vs vehicle: day 12, not statistically significant", "experimental": "Male CD1 mice (30–40 g, 8–9 weeks of age) were randomized into study treatment groups, housed individually and allowed to acclimatize under standard laboratory conditions for a minimum of 5 days prior to commencement of the study. Mice received food and water ad libitum. The experiment was performed in a certified dedicated in vivo experimental laboratory at the GlaxoSmithKline Medicines Research Centre, Stevenage, United Kingdom. The four treatment groups were (1) unimmunized and untreated (naive group) (n = 4); (2) intraperitoneal vehicle (n = 13), (3) GSK137 15 mg/kg (n = 14), and (4) GSK137 30 mg/kg (n = 14). Groups (2) to (4) were given intraperitoneal immunization with TNP–KLH (100 μg) on day 0, vehicle was 1% methylcellulose in water + 0.1% sodium lauryl sulphate, and compound or vehicle was given to groups (2) to (4) by oral gavage three times per day from day −1 to day +12. Blood samples were collected by tail vein for measurement of compound, IgM and IgG levels on days 0, 5, 8, and 12 ahead of immunization/first daily dose. On day 8, blood samples were also taken (n = 7) at 0.5, 1.5, 3, 5, or 7 h after first daily dose. On day 12, spleens were collected, weighed, and placed into Dulbecco's modified Eagle's medium on wet ice for analysis by flow cytometry.\nFor cell measurements, spleens were passed through a […] cell strainer, red blood cells were lysed, and cells were resuspended in medium, counted, and 1 × 10^6 cells plated for staining. Cells were washed in PBS and resuspended in 100 μl viability dye (diluted 1:1000 in PBS) for 15 min at room temperature. About 100 μl cell-staining buffer (CSB; BioLegend; catalog no. 420201) was added to each well before centrifugation and removal of supernatants, and cell pellets were resuspended in 100 μl relevant cocktail of antibodies (Table S2) for surface staining and incubated for 30 min at 4 °C. Cells were then washed in CSB and resuspended in 200 μl of FoxP3 fixation and permeabilization buffer for 30 min for staining of intracellular markers for 30 min. Cells were washed in PermWash buffer and resuspended in CSB (250 μl) before acquisition of a Cytek Aurora spectral cytometer (Cytek). Gating was carried out as shown (Figs. S1 and S2), and data were analyzed on FlowJo 10 (Becton Dickinson). Cell frequency was used to calculate an absolute cell number per tissue from the total live cell counts from whole homogenized spleen. Data were normalized against background GC and Tfh quantified in naive mice prior to performing percent inhibition calculations.\nSingle cell suspensions were generated by passing spleens through a 40 µM cell strainer into medium (RPMI 1640 supplemented with 2% fetal calf serum, 1% penicillin / streptomycin, 1% L-glutamine). Following centrifugation (400 g, 5 minutes, 4 °C) and removal of supernatants, red blood cells were lysed by incubation in 1 mL lysis buffer for 1 minute at room temperature. Cells were resuspended in medium, counted on a Nucleocounter NC3000 (Chemometec, Lillerød, Denmark) and 1x10^6 cells plated into 96-well polypropylene plates for staining. Cells were washed in 200 µL PBS and resuspended in 100 µL viability dye (diluted 1:1000 in PBS) for 15 minutes at room temperature. 100 µL cell staining buffer (CSB) (BioLegend, San Diego, CA, USA, #420201) was added to each well before centrifugation and removal of supernatants. Cell pellets were resuspended in 100 µL relevant cocktail of antibodies (see Tables S2 and S3) for surface staining and incubated for 30 minutes at 4 °C. Cells were washed in CSB and resuspended in 200 uL of FoxP3 fixation and permeabilisation buffer for 30 minutes in the dark at room temperature, washed and stained for intracellular markers for 30 minutes at room temperature. Cells were washed in Permwash and resuspended in CSB (250 µL) before acquisition on a Cytek Aurora spectral cytometer (Cytek, Fremont, CA, USA). […]", "data": [{"smiles": "Cc1ncccc1[C@H]1C[C@@H](c2cccc3nc(N)ccc23)Nc2c(F)cnn21", "note": "[GSK137, 5-((5S,7R)-3-Fluoro-7-(2-methylpyridin-3-yl)-4,5,6,7-tetrahydropyrazolo[1,5-a]pyrimidin-5-yl)quinolin-2-amine]", "values": [{"measurement": "plasmablasts and plasma cells as a percentage of total viable cells vs vehicle", "setting": "15 mg/kg or 30 mg/kg, Fig. S6B", "result": "no statistically significant reductions"}, {"measurement": "reduction of mean number of GC B cells per spleen vs vehicle", "setting": "15 mg/kg, day 12", "result": 53, "unit": "%"}, {"measurement": "reduction of mean absolute number of Tfh cells per spleen vs vehicle", "setting": "15 mg/kg", "result": 39, "unit": "%"}, {"measurement": "reduction of frequency of GC B cells within total splenic B cells vs vehicle", "setting": "15 mg/kg, day 12, p = 0.0058", "result": 61, "unit": "%"}, {"measurement": "reduction of mean frequency of Tfh cells as fraction of splenic CD4+ T cells vs vehicle", "setting": "15 mg/kg, day 12, p = 0.014", "result": 48, "unit": "%"}, {"measurement": "reduction of mean absolute number of Tfh cells per spleen vs vehicle", "setting": "30 mg/kg", "result": 34, "unit": "%"}, {"measurement": "reduction of frequency of GC B cells within total splenic B cells vs vehicle", "setting": "30 mg/kg, day 12, p = 0.0031", "result": 72, "unit": "%"}, {"measurement": "reduction of mean frequency of Tfh cells as fraction of splenic CD4+ T cells vs vehicle", "setting": "30 mg/kg, day 12, p = 0.0041", "result": 50, "unit": "%"}, {"measurement": "reduction of mean number of GC B cells per spleen vs vehicle", "setting": "30 mg/kg, day 12, p = 0.04", "result": 67, "unit": "%"}, {"measurement": "number of plasmablasts and plasma cells (CD19+/intCD138+) in spleen vs vehicle", "setting": "15 and 30 mg/kg, after immunization", "result": "no statistically significant difference"}, {"measurement": "macrophage, dendritic cell and natural killer cell markers (CD11c, CD11b, CD161) vs vehicle", "setting": "data not shown", "result": "no difference"}, {"measurement": "mean total CD4+ T-cell numbers per spleen", "setting": "significant at 30 mg/kg (p = 0.032), not at 15 mg/kg", "result": "return mean CD4^+ T-cell numbers to levels observed in naive mice"}]}]}
